Results on 19 compounds are retold here after patent US11286268B1, “EIF4E-inhibiting compounds and methods” (EFFECTOR THERAPEUTICS, INC., priority 2019, dated 2022).

This experiment deals with recombinant eIF4E (Homo sapiens (Human), UniProt P06730). Put plainly: Fluorescence polarization competition assay for eIF4E binding potency. Summed up: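 Competition of test compound against 20 nM EDA-m^7GDP-ATTO-550 for 75 nM recombinant eIF4E, pre-incubated 5 min, in 20 mM Tris pH 7.5, 100 mM NaCl, 1 mM DTT, 0.02% Tween-20, 1% DMSO. Equilibrated 30 min at room temperature, dark; fluorescence polarization read. IC50 from 8-point, 3-fold dilution series.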
Chain of recombinant eIF4E (P06730 whole entry): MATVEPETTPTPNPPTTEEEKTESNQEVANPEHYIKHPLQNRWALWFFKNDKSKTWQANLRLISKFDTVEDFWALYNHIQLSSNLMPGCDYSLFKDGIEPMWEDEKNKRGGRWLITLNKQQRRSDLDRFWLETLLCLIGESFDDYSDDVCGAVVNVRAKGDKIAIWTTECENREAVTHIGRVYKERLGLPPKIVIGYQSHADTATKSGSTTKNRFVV

Where [1] appears, read: fluorescence polarization competition, 75 nM recombinant eIF4E, 20 nM EDA-m7GDP-ATTO-550, IC50 class, read-out: elF4E FP.
The mark [2] stands for this setting: inhibition of eIF4E/EDA-m7GDP-ATTO-550 binding by 50%, Table 4B calculated values, read-out: IC50.
Where [3] appears, read: inhibition of eIF4E/EDA-m7GDP-ATTO-550 binding, calculated IC50 values, Table 4B, read-out: IC50.

Read-outs that look alike come from different tables or passages of the source. A value given as a limit tells only on which side of the number the result lay.

With `Cc1nc2cc(F)c(OC(F)F)c(C#N)c2c(=O)n1CCOc1ccc(Cl)cc1-c1ccnc2c(C(=O)O)csc12` [compound 545], the IC50 under setting [1] was less than 50 nM and the IC50 under setting [2] is 7.81 nM.
The matching figures for `Cc1cc(-c2cc(Cl)ccc2OCCn2c(C)nc3c(C4CC4)ncc(C#N)c3c2=O)c2scc(C(=O)O)c2n1` [compound 339]: less than 50 nM and 26.8 nM.
As to `Cc1nc2cnc(N(C)C3CCN([C@H]4C[C@H](OC(F)F)C4)CC3)c(C#N)c2c(=O)n1CC#Cc1ccc(Cl)cc1-c1ccnc2c(C(=O)NS(=O)(=O)c3cccnc3)csc12` [compound 1765], under setting [3], the IC50 is 12.3 nM.
For the compound `CCN(c1ncc2nc(C)n(CC#Cc3ccc(Cl)cc3-c3ccnc4c(C(=O)NS(=O)(=O)c5cccnc5)csc34)c(=O)c2c1C#N)C1CCN([C@H]2C[C@@H](OC(F)(F)F)C2)CC1` [compound 1780], the IC50 under setting [3] is 10.9 nM.
On to `Cc1nc2cc(C(F)(F)F)cc(Cl)c2c(=O)n1CCOc1ccc(Cl)cc1-c1ccnc2c(C(=O)O)csc12` [compound 198], for which the IC50 reads like this: under setting [1], 50 to 1000 nM; under setting [2], 124 nM.
With `Cc1cc(-c2cc(Cl)ccc2OCCn2c(C)nc3cc(OC(F)F)cc(C#N)c3c2=O)c2scc(C(=O)O)c2n1` [compound 579], the IC50 runs as follows: under setting [1], less than 50 nM; under setting [2], 30.2 nM.
In the case of `Cc1nc2cnc(N(C)C3CCN(CC(F)(F)C(F)F)CC3)c(C#N)c2c(=O)n1CC#Cc1ccc(Cl)cc1-c1ccnc2c(C(=O)NS(C)(=O)=O)csc12` [compound 1703], under setting [3], the IC50 is 6 nM.
Take `Cc1nc2cnc(N(C)C3CCN(CC(C)(C)F)CC3)c(C#N)c2c(=O)n1CC#Cc1ccc(Cl)cc1-c1ccnc2c(C(=O)O)csc12` [compound 1142]: the IC50 is, setting by setting: under setting [1], less than 50 nM; under setting [2], 13 nM.
Regarding `Cc1cc(-c2cc(Cl)ccc2OCCn2c(C)nc3c(C)nc(-c4c(C)cccc4C)c(C#N)c3c2=O)c2scc(C(=O)O)c2n1` [compound 872], under setting [1], the IC50 is less than 50 nM.
Take `Cc1nc2cnc(N(C)C34CCC(N(C)CCF)(CC3)C4)c(C#N)c2c(=O)n1CC#Cc1ccc(Cl)cc1-c1ccnc2c(C(=O)O)csc12` [compound 1106]: the IC50 runs as follows: under setting [1], less than 50 nM; under setting [2], 17.4 nM.
On the same counts, the results for `Cc1cc(-c2cc(Cl)ccc2OCCn2c(C)nc3cc(C(F)(F)F)c(-c4ncc(F)cc4F)c(C#N)c3c2=O)c2scc(C(=O)O)c2n1` [compound 433] are less than 50 nM and 4.15 nM.
As for `Cc1nc2cnc(N(C)C3CCN([C@H]4C[C@@H](OC(F)(F)F)C4)CC3)c(C#N)c2c(=O)n1CC#Cc1ccc(Cl)cc1-c1ccnc2c(C(=O)O)csc12` [1173a], the IC50 under setting [2] is 19.2 nM.
On to `Cc1nc2cnc(N3CCN(C)CC3C)c(C#N)c2c(=O)n1CCOc1ccc(Cl)cc1-c1ccnc2c(C(=O)O)csc12` (stereo not shown) [compound 1335], for which the IC50 under setting [3] was 12.8 nM.
Take `Cc1cc(-c2cc(Cl)ccc2OCCn2c(C)nc3cc(C(F)(F)F)c(CN4C[C@@H](C)O[C@@H](C)C4)c(C#N)c3c2=O)c2scc(C(=O)O)c2n1` [compound 642]: the IC50 was less than 50 nM under setting [1] and 3.63 nM under setting [2].
Regarding `Cc1nc2cnc(N3CCC(N4CC(F)C4)CC3)c(C#N)c2c(=O)n1CC#Cc1ccc(Cl)cc1-c1ccnc2c(C(=O)O)csc12` [compound 1564], the IC50 under setting [3] was 10.6 nM.
For `Cc1cc(-c2cc(Cl)ccc2OCCn2c(C)nc3cc(C(F)(F)F)c(C(=O)N(C)C)nc3c2=O)c2scc(C(=O)O)c2n1` [compound 781], the IC50 was less than 50 nM under setting [1] and 3.12 nM under setting [2].
On the same counts, the results for `Cc1nc2cnc(N3CCN(C(C)(C)CC(F)(F)F)CC3)c(C#N)c2c(=O)n1CCOc1ccc(Cl)cc1-c1ccnc2c(C(=O)O)csc12` [compound 845] are less than 50 nM and 12.7 nM.
Take `Cc1nc2cnc(N(C)C3CCN(C)CC3)c(C#N)c2c(=O)n1CCOc1ccc(Cl)cc1-c1ccnc2c(C(=O)O)csc12` [compound 854]: the IC50 by setting is: under setting [1], less than 50 nM; under setting [2], 11.9 nM.
The matching figures for `CC#Cc1c(C(=O)O)cccc1-c1cc(Cl)ccc1OCCn1cnc2cnc(C#N)cc2c1=O` [compound 24]: 50 to 1000 nM and 184 nM.
